Measurements as given in patent US20060194740A1, “NOD1 as an anti-tumor agent” (priority 2005, published 2006).
Starred links: 1 amine or outer side, 2 acyl side, 3 side chain; linkers in the order of their positions; H or OH if unused. Non-standard residues stand in square brackets, D forms with d. Residues, ends and D or L forms follow the SMILES beside them. No end group written: not given here. *: point of attachment. mesoDAP = meso-diaminopimelic acid, O=C(O)[C@@H](CCC[C@H](N[*:1])C(=O)[*:2])N[*:3]; Diaminopimelic acid = diaminopimelic acid; Cbz = O=C(OCc1ccccc1)*; CH2F = FC*

What was measured:
MCF-7 cells = assay: Propidium iodide exclusion cell death assay, wild-type (parental/Blasto) MCF-7 cells; assay type: cell-based, human; settings: for sensitivity to cell death: parental versus C20 cells (data not shown)
Description: (§1) Cell viability assays. Propidium iodide exclusion assay: Cells were stimulated as indicated for 2 days. Subsequently, cells were harvested, washed twice in FACS buffer (PBS containing 1% FCS and 0.1% NaN3) and resuspended in propidium iodide (PI)—containing FACS buffer (4 ug/ml). The extent of cell death was analyzed with a FACSCalibur flow cytometer (Becton Dickinson, Mountain View, Calif.). DAPI staining: MCF-7 cells were plated in chamber slides, and stimulated for 2 days. Cells were washed with PBS and apoptotic nuclei were stained with 1 μg/ml DAPI (Sigma Chemical Co., St. Louis, Mo.). Cells were fixed in 4% paraformaldehyde and examined by fluorescence microscopy.
(§2) To further investigate the role of Nod1 in apoptosis, a variety of cell types were incubated with the Nod1 ligand, […] (γTriDAP), which specifically activates Nod1. The cell types tested included the parental MCF-7 cell line, the Nod1-deficient MCF-7C20 clone, and a cell line engineered to contain an additional human Nod1 allele (MCF-7Nod1) so that Nod1 was over-expressed. To determine whether the resistance of C20 cells to γTriDAP-induced apoptosis resulted from the absence of Nod1, human Nod1 was stably expressed in MCF-7 C20 cells to produce Nod1-sufficient C20 cells (C20/Nod1). As another control, the parental MCF-7 cell line was transfected with an empty retroviral vector to generate MCF-7 Blasto cells. Cells were treated with γTriDAP in the presence or absence of cycloheximide (CHX) and cell death was then determined by propidium iodide staining and flow cytometry.

[1] = test system: poly(ADP-ribose)polymerase (PARP) and capases 6, 7, 8 and 9; assay: Western blot of PARP and caspase cleavage in MCF-7 cells; assay type: cell-based, human; settings: 24 h (FIG. 3)
Description: (§3) Western blot analysis and immunoprecipitation. Cells were washed extensively and lysed using lysis buffer containing 50 mM Hepes, 100 mM NaCl, 2 mM EDTA, 10% glycerol, 1% Nonidet P-40, 14 μM pepstatin A, 100 uM leupeptin, 3 mM benzamidine, 1 mM PMSF, 1 mM sodium pyrophosphate, 10 mM sodium orthovanadate, 100 U/ml aprotinin, and 100 mM sodium fluoride. After incubation for 30 min on ice, cell lysates were centrifuged (14000 rpm, 10 min, 4° C.) and the supernatants were recovered. For immunoprecipitation, cell lysates were mixed with 5 μg of antibody for 3 hour at 4° C. under constant agitation. Immune complexes were allowed to bind to 20 μl protein A-Sepharose beads overnight, beads were washed three times with lysis buffer. Immunoprecipitates were separated on SDS-PAGE and transferred to PVDF membranes.
Further confirmation that γTriDAP induces apoptosis was obtained using two broad spectrum caspase inhibitors, z-VAD-FMK and Boc-D-FMK. Both z-VAD-FMK and Boc-D-FMK abrogated γTriDAP-induced cell death (FIG. 2D).

SK-BR3 = assay: Apoptosis by PI staining, SK-BR3 cells stably expressing Nod1; assay type: cell-based, human; settings: SKBR3 cells; αTriDAP substituted for γTriDAP, with TNFα and cycloheximide (FIG. 9B)
Description: as §1
To determine if Nod1-dependent apoptosis occurs in other human cell lines, a series of epithelial cell lines were examined where Nod1 was stably expressed to enhance sensitivity to activation of the Nod1 pathway. Cells were treated with TNFα (T) and γTriDAP (γ) in the presence or absence of CHX (C) and monitored for viability by PI staining as a measure of apoptosis (Table 1).

MCF-7 Nod1 cells = assay: Propidium iodide exclusion cell death assay, MCF-7 Nod1 cells over-expressing Nod1; assay type: cell-based, human; settings: for effect on γTriDAP-induced cell death: caspase inhibitor 50 uM, 30 min before γTriDAP/CHX for 48 h (FIG. 2D); for effect on γTriDAP-induced apoptosis: inhibitor 100 uM, 30 min prior to γTriDAP/CHX for 48 h (FIG. 6A)
Description: as §1, §2

MCF-7 C20 cells [2] = assay: Propidium iodide exclusion cell death assay, Nod1-deficient MCF-7 C20 cells; assay type: cell-based, human
Description: as §1, with “Propidium iodide exclusion assay: Cells were stimulated as indicated for 2 days.” left out
as §2

MCF-7 Nod2 cells [3] = assay: Propidium iodide apoptosis assay, MCF-7 Nod2 cells; assay type: cell-based, human; settings: MDP plus CHX, 48 h (FIG. 5A)
Description: as §1
(§4) Experiments were also performed to ascertain whether activation of Nod2 by its specific activator, muramyl dipeptide (MDP), would initiate apoptosis in parental MCF-7 cells or in MCF-7 cells over-expressing Nod2 (MCF-7 Nod2). Thus, γTriDAP or MDP were added to each of these lines and apoptosis (FIG. 5A) and IL-8 production (FIG. 5C) were measured. […] Expression of Nod1 and Nod2 in MCF-7 stable transfectants was confirmed by immunoblotting (FIG. 5B).

MCF-7 Nod2 cells [4] = assay: IL-8 secretion ELISA, MCF-7 Nod2 cells; assay type: cell-based, human; settings: 24 h (FIG. 5C)
Description: IL-8 ELISA. Concentrations of IL-8 in the culture supernatants of transfected HeLa cells were measured by ELISA using 96-well Immunlon plates (Dynatech Laboratories, Chantilly, Va.). ELISA was performed using the mAb MAB208 for capture and a biotinylated polyclonal rabbit anti-human IL-8 Ab (R&D Systems, Minneapolis, Minn.) followed by streptavidin HRP for detection.
as §4

MCF-7 RIP2 KD cells = assay: Propidium iodide apoptosis assay, MCF-7 RIP2 KD cells; assay type: cell-based, human; settings: cells expressing RIP2 KD; 20 μg/ml, CHX, 48 hr (FIG. 13A)
Description: as §1
Several RIP2 mutants were stably expressed in MCF-7 cells to evaluate the role of the RIP2 kinase activity in γTriDAP-induced apoptosis. Expression of RIP2 lacking its CARD domain completely abrogated Nod1-induced cell death (FIG. 7A). […] Cells expressing wild type RIP2 and RIP2 KD constructs were sensitive to lower concentrations of γTriDAP and died faster than cells expressing only Nod1 (FIG. 13C) or than parental MCF-7Blasto cells (data not shown).

MCF-7 C20 cells [5] = assay: 3H-thymidine proliferation assay, MCF-7 C20 cells; assay type: cell-based, human; settings: tamoxifen added in the culture medium (data not shown)
Description: Retroviral transfections. The various genes used in this study were cloned into pMSCV-Blasto, pBabe-Puro or pBabe-Neo retroviral vectors. MCF-7 cells were stably transfected using available procedures. Briefly, amphotropic 293 cells were transfected with retroviral vectors encoding selected Nod1, Nod2 and other proteins. Twenty-four hours post-transfection, cells were incubated at 32° C. overnight to produce viral particles. Target cells were infected the next day with virus-containing 293 cell supernatants containing recombinant retroviral particles. Cells were selected with 10 μg/ml blasticidin S (Calbiochem EMD Biosciences Inc., San Diego, Calif.), 500 μg/ml […] (Invitrogen, Carlsbad, Calif.) or 5 μg/ml puromycin (Calbiochem). The expression of all constructs was confirmed by Western blot analysis. To determine the effects of 17β-estradiol (Calbiochem), cells were cultured in phenol red-free DMEM supplemented with […]. Cells were seeded in 96 well plates with various concentration of 17β-estradiol (E2) for 24 h and pulsed with ^3H-thymidine (1 μCi/well, MP Biomedicals, Irvine, Calif.). Cells were harvested on glass fiber filters and radioactivity measured by liquid scintillation. […]

Myc-NOD1 (human) = Myc-NOD1 (human) (UniProt Q9Y239); assay: cell-based or functional assay
[6] = biological target: endogenous NOD1 protein of parental MCF-7 cells (human) (UniProt Q9Y239); assay: cell-based or functional assay
[7] = biological target: human Nod1 stably expressed in cell lines (human) (UniProt Q9Y239); assay: cell-based or functional assay
MCF-7 C20/Nod1 cells = assay: Propidium iodide exclusion apoptosis assay, MCF-7 C20/Nod1 cells; assay type: cell-based, human; settings: γTriDAP/CHX (FIG. 12A)
Description: as §1, §2
To determine whether the presence of estrogens modulates Nod1-induced apoptotic pathway, cells were cultured in medium containing charcoal-treated serum.

JNK = JNK phosphorylation in MCF-7 RIP2 transfectants; assay type: cell-based, human; settings: γTriDAP with cycloheximide for 2 h in wild type RIP2 or RIP2 KD cells (FIG. 7C)
Description: as §3
The effect of RIP2 expression on γTriDAP-induced JNK phosphorylation was also examined (FIG. 7C).

MCF-7C20 cells = assay: IL-8 production, MCF-7C20 cells; assay type: cell-based, human; settings: MCF-7C20 cells (data not shown)
MCF7-C20Nod1 cells = assay: IL-8 production, MCF7-C20Nod1 cells; assay type: cell-based, human; settings: wild-type Nod1 expressed in MCF7-C20Nod1 cells (FIG. 5C)
[8] = agent alone, wild type cells (FIG. 2A)

αTriDAP: inactive control tri-peptide where mesoDAP was bound to Glu in the a position rather than in the γ position (Ala-Glu-[mesoDAP]; not fully specified (residue 1); also: DAP bound to Glu alpha-carboxyl (αTriDAP))
cell death (MCF-7 cells; incubated with MCF-7 cells in the presence of cycloheximide (FIG. 2A)): did not induce cell death
proteolytic cleavage of PARP and capases 6, 7, 8 and 9 [1]: not
apoptosis (SK-BR3): reduced apoptosis

COC(=O)CC(NC(=O)OC(C)(C)C)C(=O)CF [Boc-D-FMK]
effect on γTriDAP-induced cell death (MCF-7 Nod1 cells): abrogated

TNFα
TNFα-induced apoptosis (MCF-7 C20 cells [2]; MCF-7 C20 versus parent MCF-7 cells, TNF 0-40 ng/ml, 20 h (FIG. 1C)): significantly more resistant

CC(=O)N[C@H]1C(O)O[C@H](CO)[C@@H](O)[C@@H]1O[C@H](C)C(=O)N[C@@H](C)C(=O)N[C@H](CCC(=O)O)C(N)=O (mixture of isomers) [MDP, muramyl dipeptide]
apoptosis (MCF-7 Nod2 cells [3]): did not undergo increased apoptosis
IL-8 secretion (MCF-7 Nod2 cells [4]): did result in IL-8 secretion
apoptosis (MCF-7 RIP2 KD cells): effective at inducing high levels of apoptosis

C[C@@H]1C[C@@H]([C@H](O)CC2CC(=O)NC(=O)C2)C(=O)[C@@H](C)C1 [cycloheximide]
cell death (MCF-7 cells; [8]): No cell death

COc1cccc2c1C(=O)c1c(O)c3c(c(O)c1C2=O)C[C@@](O)(C(=O)CO)C[C@@H]3O[C@H]1C[C@H](N)[C@H](O)[C@H](C)O1 [doxirubicin]
sensitivity to cell death (MCF-7 cells): equally sensitive

CC/C(=C(\c1ccccc1)c1ccc(OCCN(C)C)cc1)c1ccccc1 [tamoxifen, reference compound]
effect on γTriDAP-induced cell death (MCF-7 cells; tamoxifen prior to γTriDAP/CHX, MCF-7 cell lines (FIG. 12B)): partially blocked
effect on estrogen-induced proliferation (MCF-7 C20 cells [5]): blocked

CC[C@@]1(O)C(=O)OCc2c1cc1n(c2=O)Cc2cc3ccccc3nc2-1 [camptothecin]
sensitivity to cell death (MCF-7 cells): equally sensitive

COC(=O)C[C@H](NC(=O)[C@H](C)NC(=O)[C@@H](NC(=O)OCc1ccccc1)C(C)C)C(=O)CF [z-VAD-FMK] (Cbz-Val-Ala-Asp(OMe)-CH2F)
effect on γTriDAP-induced cell death (MCF-7 Nod1 cells): abrogated
effect on γTriDAP-induced apoptosis (MCF-7 Nod1 cells): blocked γTriDAP-induced apoptosis nearly completely

D-Ala-L-Glu-Diaminopimelic acid (γTriDAP) (peptide)
cell death by propidium iodide staining and flow cytometry; MCF-7Nod1 cells, γTriDAP with cycloheximide, 48 h (Myc-NOD1 (human)): 60%
cell death by propidium iodide staining and flow cytometry; wild-type MCF-7 cells, γTriDAP with cycloheximide [6]: 25%
γTriDAP-induced apoptosis; C20/Nod1 cells cultured with steroids [7]: 80%
γTriDAP-induced apoptosis; C20/Nod1 cells cultured without steroids [7]: 10%

D-Ala-L-Glu-Diaminopimelic acid ([dA]-Glu-[Diaminopimelic acid]; also: Glu gamma-carboxyl linked to DAP (γTriDAP))
cell death (MCF-7 cells; [8]): No cell death
cell death (MCF-7 cells; γTriDAP in the presence of cycloheximide, wild-type MCF-7, PI staining, flow cytometry (FIG. 2A)): about 25%
apoptosis (MCF-7 C20 cells [2]; γTriDAP plus cycloheximide, MCF-7C20 without Nod1 expression): totally resistant
cell death (MCF-7 Nod1 cells; combination of cycloheximide and γTriDAP, 48 h treatment, MCF-7Nod1 cells): ~60%
γTriDAP-induced apoptosis (MCF-7 C20/Nod1 cells; with steroids): 80%
γTriDAP-induced apoptosis (MCF-7 C20/Nod1 cells; without steroids (charcoal-treated serum)): 10%
proteolytic cleavage of PARP and capases 6, 7, 8 and 9 [1]: resulted in proteolytic cleavage
phosphorylation of JNK (JNK): induced phosphorylation of JNK
γTriDAP-induced IL-8 production (MCF-7C20 cells): inhibited
γTriDAP-induced IL-8 production (MCF7-C20Nod1 cells): restored

IETD
effect on γTriDAP-induced apoptosis (MCF-7 Nod1 cells): marked inhibitory effects
